Experiment [1] has as its system embryos from zebrafish model of DMD. The settings on record: Li and Amer, PLoSONE, 2015; cited from earlier work.
Experiment [2] deals with T1, skeletal myofibrils (Rabbit Psoas), myosin ATPase activity.
T1 construct: Rabbit Psoas Prep 11 (0.25 mg/mL)
Description: Skeletal Myofibril ATPase Assay. The settings on record: skeletal myofibrils (Rabbit Psoas 0.25 mg/mL), PK/LDH-coupled NADH absorbance at 340 nm. In kind it is biochemical. An outline of the steps: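 PK-LDH coupled assay: ADP from myofibril ATPase drives NADH oxidation, read as A340 every 1.5-2 min over 45 min; rate taken as max−min absorbance. Normalized to 1% DMSO vehicle (100%) and fitted to a four-parameter logistic for IC50, bottom constrained ≥0. Buffer pH 7.0 (PIPES/CaCl2/EGTA).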

The text below walks through data of US11390606B2, “Pyridazinone compounds and uses thereof” (Edgewise Therapeutics, Inc., priority 2018, dated 2022).

Regarding `Cc1ccc(S(=O)(=O)NCc2ccccc2)cc1` [BTS, N-benzyl-p-tolyl-sulfonamide], the “protection of muscles from pathological muscle derangement” value in experiment [1] is “protect muscles from pathological muscle derangement”.

In experiment [2], `CC(=O)Nc1ncc(-c2ccc(=O)n(Cc3ccc(Cl)cc3)n2)cn1` [Compound 26, N-(5-(1-(4-chlorobenzyl)-6-oxo-1,6-dihydropyridazin-3-yl)pyrimidin-2-yl)acetamide] had an IC50 of under 10 µM. Still for that read-out and setting: to `N#Cc1ccc(Cn2nc(-c3ccc(Br)cc3)ccc2=O)cc1` [Compound 238, 4-((3-(4-bromophenyl)-6-oxopyridazin-1(6H)-yl)methyl)benzonitrile] belongs 10 to 100 µM. On the same count and under the same terms, to `O=c1ccc(-c2cnc(OCC(F)(F)F)nc2)nn1Cc1ccccc1O` [Compound 49, 2-(2-hydroxybenzyl)-6-(2-(2,2,2-trifluoroethoxy)pyrimidin-5-yl)pyridazin-3(2H)-one] belongs under 10 µM; to `CCc1ccc(-c2ccc(=O)n(Cc3ccc(Cl)cc3)n2)cc1` [Compound 313, 2-(4-chlorobenzyl)-6-(4-ethylphenyl)pyridazin-3(2H)-one], under 10 µM. Still for that read-out and setting: to `C=Cc1ccc(Cn2nc(-c3ccc(OC)cc3F)ccc2=O)cc1` [Compound 202, 6-(2-fluoro-4-methoxyphenyl)-2-(4-vinylbenzyl)pyridazin-3(2H)-one] belongs over 100 µM. `O=c1ccc(-c2cnc(OCC(F)(F)F)nc2)nn1Cc1c(F)cccc1F` [Compound 41, 2-(2,6-difluorobenzyl)-6-(2-(2,2,2-trifluoroethoxy)pyrimidin-5-yl)pyridazin-3(2H)-one] returned an IC50 in experiment [2] of under 10 µM. On the same count and under the same terms, the result for `CN(CC(F)(F)F)c1ncc(-c2ccc(=O)n(Cc3ccc(F)cc3F)n2)cn1` [Compound 29, 2-(2,4-difluorobenzyl)-6-(2-(methyl(2,2,2-trifluoroethyl)amino)pyrimidin-5-yl)pyridazin-3(2H)-one] reads under 10 µM; that for `O=c1ccc(-c2cnc(OCC(F)(F)F)nc2)nn1Cc1ccc(F)cc1F` [Compound 39, 2-(2,4-difluorobenzyl)-6-(2-(2,2,2-trifluoroethoxy)pyrimidin-5-yl)pyridazin-3(2H)-one], under 10 µM. The same measure, in the same setting: to `O=c1ccc(-c2cnc(OCC3(F)COC3)nc2)nn1Cc1ccc(Cl)cc1` [Compound 22, 2-(4-chlorobenzyl)-6-(2-((3-fluorooxetan-3-yl)methoxy)pyrimidin-5-yl)pyridazin-3(2H)-one] belongs under 10 µM; to `C[C@H]1Cc2cc(-c3ccc(=O)n(Cc4ccc(Cl)cc4)n3)ccc2O1` [Compound 110, (S)-2-(4-chlorobenzyl)-6-(2-methyl-2,3-dihydrobenzofuran-5-yl)pyridazin-3(2H)-one], under 10 µM; to `COc1ccc(Cn2nc(-c3ccc(Cl)cc3)ccc2=O)cc1` [Compound 235, 6-(4-chlorophenyl)-2-(4-methoxybenzyl)pyridazin-3(2H)-one], under 10 µM. The same measure, in the same setting: the result for `O=c1ccc(-c2cnc(OCC(F)(F)F)nc2)nn1Cc1ccccc1F` [Compound 36, 2-(2-fluorobenzyl)-6-(2-(2,2,2-trifluoroethoxy)pyrimidin-5-yl)pyridazin-3(2H)-one] reads under 10 µM.
